This note sets out measurements from paper PMC5589098 (PLoS ONE, 2017).

Where two headings read alike, the source gives them in different places. Where a SMILES comes first, the peptide text is derived from it. Bridges are numbered along the chain shown (N, C = ends). A value given as a limit tells only on which side of the number the result lay.

One data set deals with hCav1.3 (Homo sapiens, UniProt Q01668). The data set can be described thus: cell-based.
The target in data set [1] is human (h) Cav2.2 channels in SH-SY5Y cells (Homo sapiens, UniProt Q00975). Nature of the data set: cell-based.
Data set [2] concerns adult sheep blowflies (Lucilia cuprina). As to conditions: in vivo.
The target in a further data set is hNav1.8 (Homo sapiens, UniProt Q9Y5Y9). The data set can be described thus: cell-based.
A further data set deals with hNav1.5 (Homo sapiens, UniProt Q14524). Nature of the data set: cell-based. The data set is classed as cell-based.
The target of data set [3] is T1, hNav1.7 (Homo sapiens, UniProt Q15858). Nature of the data set: cell-based.
T1 sequence (Q15858 whole entry): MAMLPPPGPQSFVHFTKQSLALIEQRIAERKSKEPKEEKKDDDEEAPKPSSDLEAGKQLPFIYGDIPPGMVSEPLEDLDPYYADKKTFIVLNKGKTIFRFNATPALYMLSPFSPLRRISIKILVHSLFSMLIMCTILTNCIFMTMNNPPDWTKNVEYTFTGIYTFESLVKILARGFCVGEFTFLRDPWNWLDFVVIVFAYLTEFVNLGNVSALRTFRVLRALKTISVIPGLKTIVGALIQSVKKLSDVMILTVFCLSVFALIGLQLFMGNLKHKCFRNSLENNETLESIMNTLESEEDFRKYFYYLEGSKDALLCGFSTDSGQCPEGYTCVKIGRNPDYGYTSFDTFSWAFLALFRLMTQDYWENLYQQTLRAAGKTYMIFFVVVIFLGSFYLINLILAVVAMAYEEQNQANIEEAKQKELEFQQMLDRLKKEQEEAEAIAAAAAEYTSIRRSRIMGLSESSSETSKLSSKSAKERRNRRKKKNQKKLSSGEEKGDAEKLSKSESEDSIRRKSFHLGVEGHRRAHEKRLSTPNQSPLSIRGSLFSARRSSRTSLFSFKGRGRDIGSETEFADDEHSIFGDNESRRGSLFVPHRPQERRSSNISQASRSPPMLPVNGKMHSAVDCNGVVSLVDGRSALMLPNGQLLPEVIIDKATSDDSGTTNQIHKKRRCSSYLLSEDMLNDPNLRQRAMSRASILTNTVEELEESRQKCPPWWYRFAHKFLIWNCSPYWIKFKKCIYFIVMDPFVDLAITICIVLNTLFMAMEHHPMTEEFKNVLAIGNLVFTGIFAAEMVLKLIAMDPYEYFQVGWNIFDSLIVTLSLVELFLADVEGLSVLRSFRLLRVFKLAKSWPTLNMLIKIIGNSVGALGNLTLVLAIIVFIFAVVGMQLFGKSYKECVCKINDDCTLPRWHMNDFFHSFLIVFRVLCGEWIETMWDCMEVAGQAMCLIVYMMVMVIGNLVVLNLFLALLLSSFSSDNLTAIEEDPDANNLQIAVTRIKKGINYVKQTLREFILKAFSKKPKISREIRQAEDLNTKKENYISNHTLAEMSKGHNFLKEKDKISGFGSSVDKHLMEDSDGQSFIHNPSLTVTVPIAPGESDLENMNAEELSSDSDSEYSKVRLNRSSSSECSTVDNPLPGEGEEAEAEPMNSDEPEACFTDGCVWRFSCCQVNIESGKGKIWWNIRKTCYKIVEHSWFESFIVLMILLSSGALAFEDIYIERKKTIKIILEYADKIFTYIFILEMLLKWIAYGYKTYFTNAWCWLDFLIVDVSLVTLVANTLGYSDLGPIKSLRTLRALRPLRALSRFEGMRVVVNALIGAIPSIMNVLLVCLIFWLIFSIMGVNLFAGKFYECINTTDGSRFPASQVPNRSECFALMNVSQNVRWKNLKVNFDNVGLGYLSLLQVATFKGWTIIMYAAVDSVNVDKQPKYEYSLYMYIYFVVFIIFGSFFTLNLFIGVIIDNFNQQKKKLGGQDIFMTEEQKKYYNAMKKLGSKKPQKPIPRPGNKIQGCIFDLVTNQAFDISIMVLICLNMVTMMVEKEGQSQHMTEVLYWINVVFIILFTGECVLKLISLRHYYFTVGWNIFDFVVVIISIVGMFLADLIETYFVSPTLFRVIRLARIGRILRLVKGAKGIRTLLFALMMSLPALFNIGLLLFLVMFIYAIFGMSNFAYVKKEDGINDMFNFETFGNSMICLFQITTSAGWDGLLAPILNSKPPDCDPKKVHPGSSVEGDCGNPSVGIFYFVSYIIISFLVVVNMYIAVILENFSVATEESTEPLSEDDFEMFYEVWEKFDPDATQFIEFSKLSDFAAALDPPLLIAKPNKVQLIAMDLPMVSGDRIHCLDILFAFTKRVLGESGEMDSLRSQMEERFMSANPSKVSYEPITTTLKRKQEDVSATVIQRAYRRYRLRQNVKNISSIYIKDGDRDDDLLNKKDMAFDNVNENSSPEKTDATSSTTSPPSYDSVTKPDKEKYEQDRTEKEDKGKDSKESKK
T1 sequence (Q07699 19-218, further chain): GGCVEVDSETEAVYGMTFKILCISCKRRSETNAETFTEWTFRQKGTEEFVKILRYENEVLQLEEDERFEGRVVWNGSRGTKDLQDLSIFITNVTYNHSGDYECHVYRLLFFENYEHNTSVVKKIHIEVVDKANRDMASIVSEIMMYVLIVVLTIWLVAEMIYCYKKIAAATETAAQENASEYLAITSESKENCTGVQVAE
Data set [4] has as its target rat (r) Cav2.2 (Cav α1b + Cav β1b + Cav α2δ) (Rattus norvegicus, UniProt Q02294). Nature of the data set: cell-based.
The next data set addresses hNav1.4 (Homo sapiens, UniProt P35499). Nature of the data set: cell-based. Format: cell-based.
The target in the next data set is hNav1.1 (Homo sapiens, UniProt P35498). Nature of the data set: cell-based.
Another data set concerns the target hCav3.1 (Homo sapiens, UniProt O43497). Nature of the data set: cell-based.
The target in another data set is hNav1.3 (Homo sapiens, UniProt Q9NY46). Nature of the data set: cell-based.
hNav1.3, sequence (Q07699 19-218): as the sequence (Q07699 19-218, further chain) above
hNav1.3, sequence (Q9NY46 whole entry): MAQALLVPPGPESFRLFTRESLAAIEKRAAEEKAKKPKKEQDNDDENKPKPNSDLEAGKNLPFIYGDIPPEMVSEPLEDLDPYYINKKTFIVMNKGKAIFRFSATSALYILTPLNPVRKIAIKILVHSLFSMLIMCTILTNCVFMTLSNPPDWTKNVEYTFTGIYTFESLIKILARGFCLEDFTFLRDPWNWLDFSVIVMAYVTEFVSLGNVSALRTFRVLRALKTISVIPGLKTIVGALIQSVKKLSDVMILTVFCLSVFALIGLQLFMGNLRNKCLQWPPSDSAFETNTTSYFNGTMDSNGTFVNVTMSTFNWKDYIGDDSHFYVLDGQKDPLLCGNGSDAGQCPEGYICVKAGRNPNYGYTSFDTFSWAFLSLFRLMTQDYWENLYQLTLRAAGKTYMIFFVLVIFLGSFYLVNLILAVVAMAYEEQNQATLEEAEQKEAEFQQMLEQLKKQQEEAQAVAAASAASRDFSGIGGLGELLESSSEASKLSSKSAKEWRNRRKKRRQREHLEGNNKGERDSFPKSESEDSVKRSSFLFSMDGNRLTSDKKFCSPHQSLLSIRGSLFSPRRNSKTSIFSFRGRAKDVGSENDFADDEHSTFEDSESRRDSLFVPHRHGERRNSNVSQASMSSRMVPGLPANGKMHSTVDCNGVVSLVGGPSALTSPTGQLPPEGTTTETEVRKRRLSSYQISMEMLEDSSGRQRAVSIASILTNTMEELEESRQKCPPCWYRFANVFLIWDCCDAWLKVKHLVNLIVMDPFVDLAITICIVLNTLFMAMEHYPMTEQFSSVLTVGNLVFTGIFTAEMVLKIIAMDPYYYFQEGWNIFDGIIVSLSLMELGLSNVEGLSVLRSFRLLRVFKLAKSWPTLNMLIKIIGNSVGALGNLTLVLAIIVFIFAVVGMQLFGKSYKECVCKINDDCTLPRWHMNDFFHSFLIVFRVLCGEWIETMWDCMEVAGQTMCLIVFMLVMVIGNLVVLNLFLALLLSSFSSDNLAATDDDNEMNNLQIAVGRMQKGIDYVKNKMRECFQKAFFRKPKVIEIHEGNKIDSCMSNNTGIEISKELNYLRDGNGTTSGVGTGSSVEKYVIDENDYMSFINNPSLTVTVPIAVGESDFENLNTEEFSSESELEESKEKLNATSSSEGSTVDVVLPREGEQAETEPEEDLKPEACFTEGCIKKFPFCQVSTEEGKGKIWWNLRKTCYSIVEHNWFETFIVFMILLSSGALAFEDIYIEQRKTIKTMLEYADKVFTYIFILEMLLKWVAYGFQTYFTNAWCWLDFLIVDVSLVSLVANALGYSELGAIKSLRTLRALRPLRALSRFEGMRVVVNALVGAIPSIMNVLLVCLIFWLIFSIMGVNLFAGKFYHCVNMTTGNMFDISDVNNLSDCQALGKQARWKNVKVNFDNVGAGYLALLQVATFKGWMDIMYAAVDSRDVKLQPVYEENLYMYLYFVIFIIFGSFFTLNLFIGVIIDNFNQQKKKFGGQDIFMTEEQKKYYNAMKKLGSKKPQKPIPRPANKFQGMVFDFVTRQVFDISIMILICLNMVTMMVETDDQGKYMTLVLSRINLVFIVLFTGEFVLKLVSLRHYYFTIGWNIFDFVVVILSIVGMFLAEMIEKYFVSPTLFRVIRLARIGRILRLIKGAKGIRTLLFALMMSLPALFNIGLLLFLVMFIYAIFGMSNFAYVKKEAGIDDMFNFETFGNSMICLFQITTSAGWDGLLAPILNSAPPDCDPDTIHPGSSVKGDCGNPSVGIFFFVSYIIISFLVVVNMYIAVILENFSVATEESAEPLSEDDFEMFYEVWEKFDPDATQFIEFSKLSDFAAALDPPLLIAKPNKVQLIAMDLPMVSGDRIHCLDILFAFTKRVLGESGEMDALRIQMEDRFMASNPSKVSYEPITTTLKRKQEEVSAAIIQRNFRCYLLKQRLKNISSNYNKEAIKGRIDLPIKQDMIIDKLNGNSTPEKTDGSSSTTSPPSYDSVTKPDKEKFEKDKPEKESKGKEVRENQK
A further data set has as its target hNav1.2 (Homo sapiens, UniProt Q99250). The data set can be described thus: cell-based.
Data set [5] addresses T1, hNav1.7. The data set can be described thus: cell-based. The source holds these as a separate data set.
The subject of a further data set is C57BL/6J mice. The conditions noted are these: mouse, in vivo.
The next data set concerns the target hNav1.6 (Homo sapiens, UniProt Q9UQD0). The data set can be described thus: cell-based. Format: cell-based.
The subject of data set [6] is Nav1.7-mediated pain in C57BL/6J mice. As to conditions: mouse, in vivo.

Usually IC50 stands for the point on the concentration scale where inhibition reaches its midpoint. As usually defined, the inhibition is how much of the control response was suppressed. In the case of `CC(C)C[C@H](NC(=O)[C@H](CC(=O)O)NC(=O)[C@H](Cc1ccc(O)cc1)NC(=O)[C@H](CCCCN)NC(=O)[C@@H]1CSSC[C@@H]2NC(=O)[C@H](CCCCN)NC(=O)[C@H](CC(=O)O)NC(=O)[C@H](CC(N)=O)NC(=O)[C@H](CCCCN)NC(=O)[C@@H]3CCCN3C(=O)[C@H](CC(=O)O)NC(=O)[C@@H]3CSSC[C@H](NC(=O)[C@H](CO)NC(=O)[C@H](Cc4ccc(O)cc4)NC(=O)[C@H](CC(N)=O)NC(=O)[C@H](CCCCN)NC(=O)[C@H](CSSC[C@H](NC(=O)[C@@H](N)CC(=O)O)C(=O)N[C@@H](CC(C)C)C(=O)NCC(=O)N[C@@H](Cc4c[nH]c5ccccc45)C(=O)N[C@@H](Cc4ccccc4)C(=O)N[C@@H](CCCCN)C(=O)N[C@@H](CO)C(=O)N3)NC2=O)C(=O)N[C@@H](CO)C(=O)N[C@@H](CCCNC(=N)N)C(=O)N[C@@H](CCCNC(=N)N)C(=O)N[C@@H](CC(=O)O)C(=O)N[C@@H](CCCNC(=N)N)C(=O)N[C@@H](Cc2c[nH]c3ccccc23)C(=O)N1)C(N)=O` [Cd1a] (H-DCLGWFKSCDPKNDKCCKNYSCSRRDRWCKYDL-NH2; disulfide 2-17, 9-22, 16-29), the IC50 is over 30 µM against hCav1.3; 2600 nM in [1]; 6.92 ± 3.44 µM against hNav1.8; over 30 µM against hNav1.5; 16 nM at hNav1.7 [3] (n = 10, read-out: IC50 at hNav1.7 (peak current)); 3 µM in data set [4]. Besides, the half-maximal inhibitory concentration (IC50) was over 30 µM against hNav1.4; 2180 ± 690 nM on hNav1.1; over 30 µM against hCav3.1; over 30 µM on hNav1.3; 130 ± 40 nM at hNav1.2; 3.34 ± 1.56 µM against hNav1.7 [5]. The IC50 on hNav1.6 is over 30 µM. In addition, the “activity at Cav1.3” value on hCav1.3 was “inactive”. The “paralysis or lethality at 24 h” value in data set [2] is reported as “No signs of paralysis or lethality”. The recovery from paralysis result in data set [2] is “all flies fully recovered”. Also, the half-maximal inhibitory concentration (IC50) at Nav1.5 on hNav1.5 is “inactive”. The “enhanced recovery from inhibition by strong positive-depolarising pulse” value at hNav1.7 [3] was ~ 70%. The inhibition at 3 µM in data set [4] (TS/A, 3 μM, n = 9, read-out: inhibition of rCav2.2 currents) was about 50%. The “IC50 at Nav1.4” value at hNav1.4 was “inactive”. For the same compound, the “activity at Cav3.1” value on hCav3.1 is “inactive”. For the same compound, the “ataxia index (number of foot slips/meters travelled)” value in the data set on C57BL/6J mice is “no significant effect”. Further, the side effects entry with C57BL/6J mice is on record as “did not produce any apparent side effects”. Moreover, the half-inhibitory concentration (IC50) at Nav1.6 against hNav1.6 was “inactive”.

`CC(C)C[C@H](NC(=O)[C@H](CC(=O)O)NC(=O)[C@H](Cc1ccc(O)cc1)NC(=O)[C@H](CCCCN)NC(=O)[C@@H]1CSSC[C@@H]2NC(=O)[C@H](CCCCN)NC(=O)[C@H](CC(=O)O)NC(=O)[C@H](CC(N)=O)NC(=O)[C@H](CCCCN)NC(=O)[C@@H]3CCCN3C(=O)[C@H](CC(=O)O)NC(=O)[C@@H]3CSSC[C@H](NC(=O)[C@H]([C@@H](C)O)NC(=O)[C@H](Cc4ccc(O)cc4)NC(=O)[C@H](CC(N)=O)NC(=O)[C@H](CCCCN)NC(=O)[C@H](CSSC[C@H](NC(=O)[C@@H](N)CC(=O)O)C(=O)N[C@@H](CC(C)C)C(=O)NCC(=O)N[C@@H](Cc4c[nH]c5ccccc45)C(=O)N[C@@H](Cc4ccccc4)C(=O)N[C@@H](CCCCN)C(=O)N[C@@H](CO)C(=O)N3)NC2=O)C(=O)N[C@@H](CO)C(=O)N[C@@H](CCCNC(=N)N)C(=O)N[C@@H](CCCNC(=N)N)C(=O)N[C@@H](CC(=O)O)C(=O)N[C@@H](CCCNC(=N)N)C(=O)N[C@@H](Cc2c[nH]c3ccccc23)C(=O)N1)C(N)=O` [Cm1a] (H-DCLGWFKSCDPKNDKCCKNYTCSRRDRWCKYDL-NH2; disulfide 2-17, 9-22, 16-29): the “activity at Cav1.3” value on hCav1.3 is “inactive”. Further, the IC50 in data set [1] is 400 ± 200 nM; on hNav1.8, over 10 µM; on hNav1.5, over 10 µM; at hNav1.1 it was 1060 ± 320 nM; against hNav1.3, over 10 µM; on hNav1.2 (read-out: IC50 at Nav1.2) it was 70 nM. The IC50 on hNav1.7 [5] was 5.12 ± 2.85 µM; at hNav1.6, over 10 µM. Also, the “activity at Cav3.1” value on hCav3.1 was “inactive”. Further, the side effects entry in the data set with C57BL/6J mice is listed as “did not produce any apparent side effects”.

For the compound `CC(C)C[C@H](NC(=O)[C@H](Cc1ccc(O)cc1)NC(=O)[C@H](Cc1ccc(O)cc1)NC(=O)[C@H](CCCCN)NC(=O)[C@@H]1CSSC[C@@H]2NC(=O)[C@H](CCCCN)NC(=O)[C@H](CC(=O)O)NC(=O)[C@H](CC(N)=O)NC(=O)[C@H](CCCCN)NC(=O)[C@@H]3CCCN3C(=O)[C@H](CC(=O)O)NC(=O)[C@@H]3CSSC[C@H](NC(=O)[C@H]([C@@H](C)O)NC(=O)[C@H](Cc4ccc(O)cc4)NC(=O)[C@H](CC(N)=O)NC(=O)[C@H](CCCCN)NC(=O)[C@H](CSSC[C@H](NC(=O)[C@@H](N)CC(=O)O)C(=O)N[C@@H](CC(C)C)C(=O)NCC(=O)N[C@@H](Cc4c[nH]c5ccccc45)C(=O)N[C@@H](Cc4ccccc4)C(=O)N[C@@H](CCCCN)C(=O)N[C@@H](CO)C(=O)N3)NC2=O)C(=O)N[C@@H](CO)C(=O)N[C@@H](CCCNC(=N)N)C(=O)N[C@@H](CCCNC(=N)N)C(=O)N[C@@H](CC(=O)O)C(=O)N[C@@H](CCCNC(=N)N)C(=O)N[C@@H](Cc2c[nH]c3ccccc23)C(=O)N1)C(N)=O` [Cm1b] (H-DCLGWFKSCDPKNDKCCKNYTCSRRDRWCKYYL-NH2; disulfide 2-17, 9-22, 16-29), the “activity at Cav1.3” value at hCav1.3 is “inactive”. Also, the IC50 in data set [1] was 1100 ± 600 nM; against hNav1.8, over 10 µM; on hNav1.5, over 10 µM; at hNav1.1, 170 ± 110 nM; against hNav1.3, 5.57 ± 0.04 µM; on hNav1.2, 80 ± 20 nM. Also, the IC50 came out at 0.23 ± 0.13 µM against hNav1.7 [5] and 3.99 ± 1.6 µM against hNav1.6. The “activity at Cav3.1” value at hCav3.1 was “inactive”. The side effects entry in the data set on C57BL/6J mice is listed as “did not produce any apparent side effects”.

Regarding `NC1=N[C@H](O)[C@H]2[C@H]3O[C@]4(O)O[C@@H]([C@@H](O)[C@@]2(N1)[C@@H]4O)[C@]3(O)CO` [TTX, tetrodotoxin], the “reversal of OD1-evoked pain behaviours” value in data set [6] was “fully reversed”. For the same compound, the “ataxia index (number of foot slips/meters travelled)” value in the data set on C57BL/6J mice is “significantly increased the ataxia index (*p < 0.05)”.
